Format in all cases: in vivo
The subject of series [1] is mice with liver injury induced by acetamidophenol. The experiment in a line: Liver injury in mice induced by acetamidophenol, drugs by intravenous injection: serum biochemical indicators and liver indexes. The conditions noted are these: for Liver albumin / Liver total protein / GSH: 10% liver homogenate; for Liver albumin / Liver total protein / GSH / MDA / Liver coefficient / Serum total protein / mice dead after modeling: mice, drug 800 mg/kg iv; for GSH / MDA: liver; for Liver coefficient / Serum total protein: acetamidophenol 400 mg/kg ip, 24 hours after modeling; for mice dead after modeling: acetamidophenol model. The procedure:
The animals were randomly divided into the following 5 groups of 10 animals according to weight: solvent control group, model group (acetamidophenol, 400 mg/kg, ml/kg, intraperitoneal injection), tiopronin group (MPG), R-(−)-N-(α-mercaptopropionyl)glycine group, and S-(+)-N-(α-mercaptopropionyl)glycine group. After fasting for 12 h, except the solvent control group and model group were given saline by intravenous injection, the other test groups were intravenously injected drugs, and then intraperitoneally injected 400/mg/kg of acetamidophenol immediately, to induce acute liver cell injury. The animals were fed with food at 6 hours after modeling, and then fasted for 16 hours; and at 24 hours after modeling, blood were sampled by eye ball removal, centrifuged, and collected for serum. ALT, and AST were determined following the method of the kit. 10% of liver homogenate was prepared, to measure GSH. The liver and spleen were taken at the same time, weighted, and calculated for organcoefficient.

Series [2] has as its system rats with liver injury induced by CCl4. Nature of the series: Protection against liver injury in rats induced by carbon tetrachloride, drugs given intragastrically. To be noted: CCl4 model, drug 450 mg/kg ig; for Albumin / Globulin / Total protein: serum; for A/G: serum albumin/globulin. The method, then:
The animals were randomly divided into the following 5 groups of 10 animals according to weight: solvent control group, model group (50% CCl4, 2 ml/kg, intraperitoneal injection), tiopronin group (MPG), R-(−)-N-(α-mercaptopropionyl)glycine group, and S-(+)-N-(α-mercaptopropionyl)glycine group. Except the solvent control group was given olive oil by intraperitoneal injection, the other test groups were intragastrically administrated drugs for 4 days, once daily, intraperitoneally injected CCl4 once on the fifth day to induce acute liver cell injury, treated with drugs 30 min before modeling (except for the model control group), and then administrated drugs once 2 hours after modeling. Then, the animals were fasted for 16 h, blood was sampled from retrobulbar venous plexus 24 hours after injecting CCl4, centrifuged, and collected for serum, and ALT, AST, albumin were determined following the method of the kit. The left lobe of liver was taken to prepare 10% of liver homogenate and measure GSH and MDA contents.

Series [3] in a line: Pharmacokinetic test in the body of a test animal, plasma drug concentration by HPLC-MS (interconversion of enantiomers). The conditions noted are these: each time point after administration, GITC derivatization. The source says:
It is found from pharmacokinetic experiment that, conversion of R-(−)-N-(α-mercaptopropionyl)glycine and S-(+)-N-(α-mercaptopropionyl)glycine to each other have not occurred in body. The specific experiment is a pharmacokinetic test in the body of a test animal, including determining the plasma drug concentration with high-performance liquid chromatography-mass spectrometry (HPLC-MS).
The process for treat a plasma sample to formulate an injected solution includes plasma acidification, extraction, and then derivatization, and is as follows: […]
ionization mode: electrospray ionization; selective ion detection; curved desolvation line (CDL); temperature: 200° C.-300° C., with 250° C. being preferred; heating block temperature: 150° C.-250° C., with 200° C. being preferred; CDL voltage: 20V-30V, with 25V being preferred; detection voltage: +1.2 kV-+1.8 kV, with +1.50 kV being preferred; flow rate of atomizing gas: 1.2 L/min-1.8 L/min, with 1.5 L/min being preferred; flow rate of drying gas: 1.5 L/min-2.5 L/min, with 2.0 L/min being preferred; detected ion: derivative of test drug [M+Na]+(m/z): 575.20; internal standard: derivative of N-isobutanoyl-D-cysteine (NIDC) [M+Na]+(m/z): 603.05; […]

The mark [4] stands for this setting: listed as S—H—N-(α-mercaptopropionyl)glycine.

Consider `CC(S)C(=O)NCC(=O)O` (stereo not drawn) [S-(+)-N-(α-mercaptopropionyl)glycine], for which, in series [1], the Liver albumin stood at 9.1 ± 2.0 mg/mL, the Liver total protein is 16.2 ± 2.9 mg/mL, the MDA was found to be 440.0 ± 134.6 nmol/g wet weight and the Liver coefficient was determined as 6.201 ± 0.567 mg/g. Also, the Serum total protein in series [1] stood at 43.7 ± 5.7 mg/mL. For the same molecule, in series [1] (setting [4]), the GSH entry is reported as “no such effects” and the MDA result is listed as “no such effects”. In series [2], this molecule returned an Albumin of 27.5 ± 1.44 mg/mL, a Globulin of 37.2 ± 5.06 mg/mL and a Total protein of 64.7 ± 6.40 mg/mL. In series [3], the “presence of the other enantiomer in plasma spectrogram after individual administration (conversion in body)” value is given as “not obviously detected”.

In series [1], `CC(S)C(=O)NCC(=O)O` (stereo not drawn) [Tiopronin, N-(α-mercaptopropionyl)glycine] yielded a Liver albumin of 9.6 ± 1.1 mg/mL, a Liver total protein of 15.7 ± 1.4 mg/mL, an MDA of 362.4 ± 98.6 nmol/g wet weight and a Liver coefficient of 5.804 ± 0.598 mg/g. In addition, in series [1], the “mice dead after modeling” value worked out at 4. For the same molecule, in series [1] (listed as tiopronin), the GSH result was “no such effects” and the MDA result is listed as “no such effects”. Moreover, in series [2], the A/G was found to be 0.825 ± 0.101, the Albumin is 26.8 ± 1.98 mg/mL, the Globulin was determined as 32.9 ± 4.79 mg/mL and the Total protein turned out to be 59.8 ± 6.26 mg/mL. In series [2] (listed as tiopronin), the A/G entry is “no obvious effect”, the Albumin result is listed as “no obvious effect”, the Globulin result was “no obvious effect” and the Total protein result was “no obvious effect”.

In series [1], `C[C@@H](S)C(=O)NCC(=O)O` [R-(−)-N-(α-mercaptopropionyl)glycine] had a Liver albumin of 9.2 ± 1.3 mg/mL, a Liver total protein of 16.5 ± 1.7 mg/mL, a Liver coefficient of 5.816 ± 0.613 mg/g and a Serum total protein of 43.8 ± 7.4 mg/mL. Also, the “mice dead after modeling” value in series [1] is reported as “no death”. In addition, in series [1] (overall comparison with tiopronin group, 800 mg/kg iv), the “protection against liver injury in mice induced by acetamidophenol” value is on record as “superior to that in tiopronin group”. Further, the “presence of the other enantiomer in plasma spectrogram after individual administration (conversion in body)” value in series [3] was “not obviously detected”.

The values above are taken from patent publication US20100204324A1, “Optically Active N-(Alpha-Mercaptopropionyl)Glycine” (priority 2007, published 2010).
